{
  "source": "patent US9957498B2",
  "about": "“Photoremovable protecting groups and uses thereof” (Iowa State University Research Foundation, Inc., priority 2015, dated 2018)",
  "key": {"[1]": {"assay": "UV-Vis spectroscopy: absorption maximum and extinction coefficient", "format": "physicochemical", "method": "(§1) The observed substrate release rate as a function of photolysis time is quantified by the quantum efficiency parameter (ϵΦ), which is the product of the extinction coefficient at the irradiation wavelength (ϵ) and the quantum yield (Φ). Extinction coefficients for compounds 1-6 were determined by UV-Vis spectroscopy (see Table 1)."}, "[2]": {"assay": "Fluorescence emission of compound solutions", "format": "physicochemical", "source_text": "FIG. 2 is a plot of normalized fluorescence as a function of wavelength for compounds 1-6 described herein.\nSee, e.g., Petr Klán et al., Chem. Rev. 113: 119-191 (2013), which is incorporated by reference as if fully set forth herein. Even thought the quantum yields for compounds 1-4 are lower than those for some o-nitrobenzyl photocaged structures, this lower quantum yield is compensated by the much higher extinction coefficients of the BODIPY chromophores compared to the o-nitrobenzyl chromophore, leading to reasonable quantum efficiencies. […] While not being bound by any particular theory, it is plausible that the higher quantum yield of compound 6 occurs because the iodine atoms promote intersystem crossing to a triplet state, which are usually longer lived than […]. Given that the triplet state of the corresponding carbocation is the computed ground state by ˜5 kcal/mol, it is certainly energetically reasonable that heterolysis could occur in the triplet excited state leading to the triplet “carbocation,” similar to the phenacyl photocage derivatives described by Givens et al., Can. J. Chem. 89: 364-384 (2011), which is incorporated by reference as if fully set forth herein."}, "[3]": {"assay": "Quantum yield of photorelease of acetic acid (ferrioxalate actinometry, 532 nm laser, LC-UV)", "format": "physicochemical", "details": "for Φ (quantum yield of acetic acid release): MeOH, 532 nm ND:YAG laser, LC-UV", "method": "as §1\nTo compute the quantum yields of photorelease (Φ), the flux of a 532 nm laser excitation beam (ND:YAG, 1st harmonic) was determined using potassium ferrioxalate actinometry. Release of acetic acid as a function of laser irradiation time in methanol was followed by quantitative LC/UV methods known in the art. Each quantum yield reported is the average of 3 separate runs. […] Additionally, repeating the quantum yield measurement for compound 2 on a different day with a different laser power setting (in triplicate) gave an identical value for the quantum yield, indicating reproducibility.\nAll quantum yields were carried out using a liquid-phase potassium ferrioxalate actinometer. The actinometer was prepared by mixing three volumes of 1.5 M K2C2O4 solution with one volume of 1.5 M FeCl3 solution in water, and stirring in complete darkness. The precipitated K3Fe(C2O4)3.3H2O was then recrystallized three times from hot water and dried in a current of warm air. To prepare 1 L of 0.15M K3Fe(C2O4)3.3H2O solution, 73.68 g of the precipitate was dissolved in 800 mL water; 100 mL 1.0 N sulfuric acid was added and filled to the mark with water, again in complete darkness. For all quantitative work the preparation and manipulation of the ferrioxalate solutions must be carried out in a darkroom, using a red light. The light intensity in a photochemical reaction is determined by irradiating ferrioxalate solution and monitoring the subsequent change in absorbance at 510 nm. Irradiation was conducted using 532 nm excitation from a ND:YAG laser source (1st harmonic). Autopipettes were used to ensure all volumes were accurately measured.\nFor each actinometric measurement a methacrylate cuvette was filled with 3 mL of 0.15 M ferrioxalate solution. The cell was placed in the sample holder, stirred and irradiated for a set period of time (0, 0.25, 0.50, 0.75, 1, 2, 3 minutes). After the allocated irradiation time the solution was transferred into a 25 mL volumetric flask, to which was added in sequence 6 mL of a developer solution (0.05 mol % phenanthroline/0.75 M acetate/0.2 M sulfuric acid), 5 mL 1 M sodium fluoride solution in water. The sample was diluted to 25 mL with water, mixed and allowed to incubate for 10 minutes. After the incubation period was complete, 3 mL of sample was transferred into 1 cm methacrylate cuvette and the absorbance (at 510 nm) read using a spectrophotometer.\nUsing iron sulfate standard solutions between 1.6×10^−5 M to 9.6×10^−5 M, a standard curve based on absorbance of the ferrioxalate/phenanthroline complex at 510 nm was compiled and the irradiated samples absorbances were compared to yield the concentration iron (II) cleaved via photolysis within the timescale of experiment.\nThe flux of the laser was calculated the following equations:\n[formula] where I is the flux (Einstein/L/s), Δn is the Fe^2+ photogenerated (mole), φ is the quantum yield at 532 nm, V1 is the irradiated volume (mL), and t=irradiation time (seconds);\n[formula] where V2 is the volume taken from the irradiated sample (mL), V3 is the volume after dilution for concentration determination (mL), and CT is the concentration of Fe^2+ after dilution (M); and\n[formula] where abs is the absorbance at 510 nm, ϵ is the molar absorptivity (M^−1 cm^−1) and l is the path length.\nDue to the low absorbance of the potassium ferrioxalate solution at 532 nm, a correction was made to account for an absorbance less than 2 (multiplied the flux by 0.0967).\nFor each compound, a solution of 1000 ppm was prepared using 1 mg of sample and dissolving in 1 mL methanol. […]"}, "HeLa cells": {"system": "HeLa cells", "assay": "Trypan blue exclusion cytotoxicity assay, HeLa", "format": "cell-based, human", "details": "20 μM, one hour incubation, ± standard deviation from two measurements", "method": "(§2) Live cell experiments were performed with HeLa (human), GM07373 (bovine) or S2 (Drosophila) cells. HeLa and GM07373 cells were cultured in DMEM medium supplemented with 10% fetal bovine serum, […] (Fisher Scientific, Pittsburgh, Pa.) in a 37° C. water jacketed CO2 incubator (Thermo Scientific, Waltham, Mass.). HeLa and GM07373 cells were sub-cultured using 0.25% (w/v) trypsin-EDTA (Life Technology, Carlsbad, Calif.) solution every two days. Cells were sub-cultured onto custom-made glass bottom culture dishes two days before the microscopy experiment. On the day of the microscopy experiment, the growth media was replaced with 20 μM compound 12b in serum-free DMEM for one hour. Cells were rinsed with the imaging medium (pH=7.2, 155 mM NaCl, 5 mM KCl, 2 mM CaCl2, 1 mM MgCl2, 2 mM NaH2PO4, 10 mM HEPES and 10 mM Glucose) prior to collecting microscopy images. […]\n(§3) HeLa, GM07373 or S2 cells were incubated with 20 μM of the compound 12b for an hour. Cytotoxicity of the compound was measured using trypan blue exclusion assays. […] The number of viable cells that excluded the dye was counted using a hemacytometer (Hausser Bright-Line, Hausser scientific, Horsham, Pa.) and an optical microscope."}, "S2 cells": {"system": "S2 cells", "assay": "Trypan blue exclusion cytotoxicity assay, S2", "format": "cell-based, Drosophila", "details": "20 μM, one hour incubation, ± standard deviation from two measurements", "method": "as §2, §3"}, "GM07373 cells": {"system": "GM07373 cells", "assay": "Trypan blue exclusion cytotoxicity assay, GM07373", "format": "cell-based, bovine", "details": "20 μM, one hour incubation, ± standard deviation from two measurements", "method": "as §2, §3"}},
  "data": [
    {"compound": "8-Acetoxymethyl-1,3,5,7-tetramethyl pyrromethene fluoroborate [Compound 2]", "values": [
      {"measurement": "λmax", "setting": "[1]; Table 1", "result": 515, "unit": "nm"},
      {"measurement": "ε", "setting": "[1]; Table 1, extinction coefficient by UV-Vis spectroscopy", "result": 71000, "unit": "M⁻¹ cm⁻¹"},
      {"measurement": "ε", "setting": "[1]; Table 2", "result": 71000, "unit": "M⁻¹ cm⁻¹"},
      {"measurement": "λmax", "setting": "[1]; Table 2", "result": 515, "unit": "nm"},
      {"measurement": "λem", "setting": "[2]; Table 1", "result": 526, "unit": "nm"},
      {"measurement": "λem", "setting": "[2]; Table 2", "result": 526, "unit": "nm"},
      {"measurement": "Φ (quantum yield of photorelease)", "setting": "[3]; Table 1, acetic acid release, 532 nm laser, methanol, average of 3 runs", "result": "9.9 ×10^−4"},
      {"measurement": "εΦ (quantum efficiency)", "setting": "[3]; Table 1, product of extinction coefficient and quantum yield", "result": 70, "unit": "M⁻¹ cm⁻¹"},
      {"measurement": "εΦ (quantum efficiency)", "setting": "[3]; Table 2", "result": 70, "unit": "M⁻¹ cm⁻¹"},
      {"measurement": "Φ (quantum yield of acetic acid release)", "setting": "[3]; Table 2, average of 3 runs", "result": "9.9 ×10^−4"}
    ]},
    {"compound": "CC(=O)OCC1=C2C(C)=CC(C=Cc3ccccc3)=[N+]2[B-](F)(F)n2c(C=Cc3ccccc3)cc(C)c21", "note": "[Compound 9, 8-Acetoxymethyl-3,5-bisstyryl-1,7-dimethyl pyrromethene fluoroborate]", "values": [
      {"measurement": "ε", "setting": "[1]; Table 2", "result": 65000, "unit": "M⁻¹ cm⁻¹"},
      {"measurement": "λmax", "setting": "[1]; Table 2", "result": 640, "unit": "nm"},
      {"measurement": "λem", "setting": "[2]; Table 2", "result": 656, "unit": "nm"},
      {"measurement": "εΦ (quantum efficiency)", "setting": "[3]; Table 2", "result": 2.9, "unit": "M⁻¹ cm⁻¹"},
      {"measurement": "Φ (quantum yield of acetic acid release)", "setting": "[3]; Table 2, average of 3 runs", "result": "4.5 ×10^−4"}
    ]},
    {"compound": "COc1ccc(/C=C/C2=[N+]3C(=C(COC(C)=O)c4c(C)cc(/C=C/c5ccc(OC)cc5)n4[B-]3(F)F)C(C)=C2)cc1", "note": "[Compound 10a, 8-Acetoxymethyl-3,5-bis(4-methoxy)styryl-1,7-dimethyl pyrromethene fluoroborate]", "values": [
      {"measurement": "ε", "setting": "[1]; Table 2", "result": 65000, "unit": "M⁻¹ cm⁻¹"},
      {"measurement": "λmax", "setting": "[1]; Table 2", "result": 661, "unit": "nm"},
      {"measurement": "λem", "setting": "[2]; Table 2", "result": 684, "unit": "nm"},
      {"measurement": "εΦ (quantum efficiency)", "setting": "[3]; Table 2", "result": 2.7, "unit": "M⁻¹ cm⁻¹"},
      {"measurement": "Φ (quantum yield of acetic acid release)", "setting": "[3]; Table 2, average of 3 runs", "result": "4.1 ×10^−4"}
    ]},
    {"compound": "COc1ccc(/C=C/c2cc(C)c3n2[B-](F)(F)[N+]2=C(C)C=C(C)C2=C3COC(C)=O)cc1", "note": "[Compound 7, 8-Acetoxymethyl-3-(4-methoxy)styryl-1,5,7-trimethyl pyrromethene fluoroborate]", "values": [
      {"measurement": "ε", "setting": "[1]; Table 2", "result": 61000, "unit": "M⁻¹ cm⁻¹"},
      {"measurement": "λmax", "setting": "[1]; Table 2", "result": 586, "unit": "nm"},
      {"measurement": "λem", "setting": "[2]; Table 2", "result": 607, "unit": "nm"},
      {"measurement": "εΦ (quantum efficiency)", "setting": "[3]; Table 2", "result": 6.0, "unit": "M⁻¹ cm⁻¹"},
      {"measurement": "Φ (quantum yield of acetic acid release)", "setting": "[3]; Table 2, average of 3 runs", "result": "9.8 ×10^−4"}
    ]},
    {"compound": "3,5-Bis(4-(1,4,7,10-tetraoxaundecyl)styryl-1,7-dimethyl-8-(4-nitrobenzoato)pyrromethene fluoroborate [Compound 12b]", "values": [
      {"measurement": "% of Viable cells", "setting": "HeLa cells", "result": "92 ± 5", "unit": "%"},
      {"measurement": "% of Viable cells", "setting": "S2 cells", "result": "93 ± 2", "unit": "%"},
      {"measurement": "% of Viable cells", "setting": "GM07373 cells", "result": "92 ± 5", "unit": "%"}
    ]},
    {"compound": "CC(=O)OCC1=C2C(C)=CC(C)=[N+]2[B-](F)(F)n2c(C=Cc3ccc(N(C)C)cc3)cc(C)c21", "note": "[Compound 8, 8-Acetoxymethyl-3-(4-dimethylamino)styryl-1,5,7-trimethyl pyrromethene fluoroborate]", "values": [
      {"measurement": "ε", "setting": "[1]; Table 2", "result": 60000, "unit": "M⁻¹ cm⁻¹"},
      {"measurement": "λmax", "setting": "[1]; Table 2", "result": 633, "unit": "nm"},
      {"measurement": "λem", "setting": "[2]; Table 2", "result": 650, "unit": "nm"},
      {"measurement": "εΦ (quantum efficiency)", "setting": "[3]; Table 2", "result": 4.1, "unit": "M⁻¹ cm⁻¹"},
      {"measurement": "Φ (quantum yield of acetic acid release)", "setting": "[3]; Table 2, average of 3 runs", "result": "6.9 ×10^−4"}
    ]},
    {"compound": "COCCOCCOCCOc1ccc(C=CC2=[N+]3C(=C(CO)c4c(C)cc(C=Cc5ccc(OCCOCCOCCOC)cc5)n4[B-]3(F)F)C(C)=C2)cc1", "note": "[Compound 11b, 3,5-Bis(4-(1,4,7,10-tetraoxaundecyl)styryl-1,7-dimethyl-8-hydroxymethylpyrromethene fluoroborate]", "values": [
      {"measurement": "ε", "setting": "[1]; Table 2", "result": 120000, "unit": "M⁻¹ cm⁻¹"},
      {"measurement": "λmax", "setting": "[1]; Table 2", "result": 667, "unit": "nm"}
    ]}
  ]
}
